# Experimental data: paper PMC2713172 (Biochemistry, 2008)
# Columns and labels:
# CYP2C9 F114L mutant [1] = molecular target: T1, CYP2C9 F114L mutant (Homo sapiens, UniProt P11712, F114L)
# CYP2C9 F476L mutant [2] = molecular target: T2, CYP2C9 F476L mutant (Homo sapiens, UniProt P11712, F476L)
# CYP2C9 F114W mutant [3] = molecular target: T3, CYP2C9 F114W mutant (Homo sapiens, UniProt P11712, F114W)
# [4] = molecular target: T4, CYP2C9 F114L/F476L double mutant (Homo sapiens, UniProt P11712, F114L/F476L)
# CYP2C9 F476L mutant [5] = molecular target: T2, CYP2C9 F476L mutant; conditions: F476L
# CYP2C9 F114W mutant [6] = molecular target: T3, CYP2C9 F114W mutant; remark: listed apart in the source
# CYP2C9 F100L mutant [7] = molecular target: T5, CYP2C9 F100L mutant (Homo sapiens, UniProt P11712, F100L)
# [8] = molecular target: CYP2C9 F114W/F476W double mutant (Homo sapiens, UniProt P11712, F114W/F476W)
# CYP2C9 = conditions: structure 1OG5; cited from earlier work
# wild-type CYP2C9 [9] = molecular target: T6, wild-type CYP2C9 (Homo sapiens, UniProt P11712); conditions: WT
# CYP2C9 F114L mutant [10] = molecular target: T1, CYP2C9 F114L mutant; remark: listed apart in the source
# CYP2C9 F476W mutant [11] = molecular target: T7, CYP2C9 F476W mutant (Homo sapiens, UniProt P11712, F476W)
# wild-type CYP2C9 [12] = molecular target: T6, wild-type CYP2C9
# wild-type CYP2C9 [13] = molecular target: T6, wild-type CYP2C9; conditions: wild-type CYP2C9
# wild-type CYP2C9 [14] = molecular target: T6, wild-type CYP2C9; remark: listed apart in the source
# [15] = molecular target: T4, CYP2C9 F114L/F476L double mutant; remark: listed apart in the source
# CYP2C9 F476W mutant [16] = molecular target: T7, CYP2C9 F476W mutant; remark: listed apart in the source
# CYP2C9 F100L mutant [17] = molecular target: T5, CYP2C9 F100L mutant; remark: listed apart in the source
# [18] = substrate: CC(=O)C[C@@H](c1ccccc1)c1c(O)c2ccccc2oc1=O; experiment: purified protein, by the assay type; conditions: other: WT; substrate hydroxylation; 37.0 °C
molecule,measurement,setting,value
"CC(=O)C[C@@H](c1ccccc1)c1c(O)c2ccccc2oc1=O [(S)-warfarin, (S)-Warfarin]",percent of wild-type kcat/Km,CYP2C9 F114L mutant [1],2%
same,ΔAmax (maximum observed difference 390–420 nm),CYP2C9 F476L mutant [2],11 ± 0.2 ×10^−3
same,ΔAmax (maximum observed difference 390–420 nm),CYP2C9 F114W mutant [3],12 ± 0.3 ×10^−3
same,percent of wild-type ΔA/K,CYP2C9 F114W mutant [3]; F114W,636%
same,ΔAmax (maximum observed difference 390–420 nm),[4],15 ± 0.3 ×10^−3
same,percent of wild-type ΔA/K,[4]; F114L/F476L,75%
same,percent of wild-type kcat/Km,CYP2C9 F476L mutant [5],2%
same,percent of wild-type kcat/Km,CYP2C9 F114W mutant [6],83%
same,percent of wild-type kcat/Km,CYP2C9 F100L mutant [7],133%
same,ΔAmax (maximum observed difference 390–420 nm),[8],12 ± 0.2 ×10^−3
same,percent of wild-type ΔA/K,[8]; F114W/F476W,303%
same,distance above the heme in crystal structure,CYP2C9,~ 10 Å
same,percent of wild-type kcat/Km,wild-type CYP2C9 [9],100%
same,ΔAmax (maximum observed difference 390–420 nm),CYP2C9 F114L mutant [10],10 ± 0.07 ×10^−3
same,percent of wild-type ΔA/K,CYP2C9 F114L mutant [10]; F114L,139%
same,ΔAmax (maximum observed difference 390–420 nm),CYP2C9 F476W mutant [11],9.3 ± 0.1 ×10^−3
same,percent of wild-type ΔA/K,CYP2C9 F476W mutant [11]; F476W,225%
same,ΔAmax (maximum observed difference 390–420 nm),wild-type CYP2C9 [12],5.3 ± 0.1 ×10^−3
same,percent of wild-type ΔA/K,wild-type CYP2C9 [12]; Wild-type,100%
same,coupling of hydroxylation to NADPH consumption,wild-type CYP2C9 [13],~ 4%
same,distance from the heme to all ring protons,wild-type CYP2C9 [14],6–7 Å
same,distance from the heme to the acetonyl methyl group,wild-type CYP2C9 [14],~ 9 Å
same,percent of wild-type kcat/Km,[15],0.4%
same,percent of wild-type kcat/Km,CYP2C9 F476W mutant [16],500%
same,ΔAmax (maximum observed difference 390–420 nm),CYP2C9 F100L mutant [17],6.5 ± 0.06 ×10^−3
same,percent of wild-type ΔA/K,CYP2C9 F100L mutant [17]; F100L,262%
wild-type CYP2C9 (Homo sapiens) (protein) MALLLAVFLCLSCLLLLSLWRQSSGRGKLPPGPTPLPVIGNILQIGIKDISKSLTNLSKVYGPVFTLYFGLKPIVVLHGYEAVKEALIDLGEEFSGRGIFPLAERANRGFGIVFSNGKKWKEIRRFSLMTLRNFGMGKRSIEDRVQEEARCLVEELRKTKASPCDPTFILGCAPCNVICSIIFHKRFDYKDQQFLNLMEKLNENIKILSSPWIQICNNFSPIIDYFPGTHNKLLKNVAFMKSYILEKVKEHQESMDMNNPQDFIDCFLMKMEKEKHNQPSEFTIESLENTAVDLFGAGTETTSTTLRYALLLLLKHPEVTAKVQEEIERVIGRNRSPCMQDRSHMPYTDAVVHEVQRYIDLLPTSLPHAVTCDIKFRNYLIPKGTTILISLTSVLHDNKEFPNPEMFDPHHFLDEGGNFKKSKYFMPFSAGKRICVGEALAGMELFLFLTSILQNFNLKSLVDPKNLDTTPVVNGFASVPPFYQLCFIPV,Km,[18],4.1 ± 0.3 µM
same,kcat,[18],0.00417 ± 6.7e-05 s⁻¹
same,kcat/Km,[18],0.06 (100) min^−1 μM^−1
